Test results published in US20240391887A1, “New VASHs inhibitors, conjugates thereof and their uses as drugs or as research tools” (Centre National de Recherche Scientifique (CNRS), priority 2021, published 2024).
“Also recorded” adds a separate entry of the source. Read-outs that look alike come from different tables or passages of the source. One block for each compound: values may come before it.

Experiments:
[1] = Solubility in water or PBS solution; assay type: physicochemical; details: compared with the corresponding base LV-80
[2] = tested on: VASH-mediated tubulin detyrosination in human CHL-1 cells; assay: In cellulo taxol-induced tubulin detyrosination assay in CHL-1 cells
VASH1 [3] = target: T1, VASH1 (Homo sapiens, UniProt Q7L8A9); assay: Standardized in vitro detyrosination ELISA based assay; assay type: biochemical; design: poly-histidine tag; made in house; host or cells: bacteria (IPTG induction); details: for in vitro activity compared with reference compounds / in vitro VASH inhibition activity: in vitro detyrosination assay; for Fold change/ LV-80: ratio IC50(compound)/IC50(LV80)
T1 sequence (Q7L8A9 whole entry): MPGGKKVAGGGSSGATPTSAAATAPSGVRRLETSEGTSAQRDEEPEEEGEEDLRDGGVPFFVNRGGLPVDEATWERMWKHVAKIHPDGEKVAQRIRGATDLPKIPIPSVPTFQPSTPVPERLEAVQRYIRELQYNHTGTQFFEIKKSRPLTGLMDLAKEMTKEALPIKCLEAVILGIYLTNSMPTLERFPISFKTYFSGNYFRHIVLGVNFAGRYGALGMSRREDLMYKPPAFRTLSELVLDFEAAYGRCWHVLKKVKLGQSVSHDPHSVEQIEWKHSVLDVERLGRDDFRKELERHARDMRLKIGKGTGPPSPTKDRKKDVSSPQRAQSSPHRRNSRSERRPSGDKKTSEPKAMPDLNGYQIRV
T1 sequence (Q8N300 whole entry partner): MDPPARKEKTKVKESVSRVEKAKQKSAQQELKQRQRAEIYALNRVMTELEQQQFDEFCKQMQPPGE
Protocol: Standardized primary ELISA-based in vitro detyrosination assay in a 96-wells format has been developed according to the method disclosed in WO2020/012002. […] Primary (rabbit anti-detyrosinated tubulin) is incubated for 1 hour and after washes, secondary (anti-rabbit) antibody is added to each well. The plate is incubated 1 h at room temperature. Development consists of addition of TMB (3,3′,5,5′-Tetramethylbenzidine) to each well, incubation 30 minute at room temperature. The colour development is stopped by addition of 0.5 M sulfuric acid. OD is measured at 450 nm.
The in vitro inhibition activity of IBMT11 is tested by adding the compound to the reaction medium as described above (see part 2.2) and then detyrosination was analysed by immunoblotting with the indicated antibodies.

CHL-1 cells [4] = assay: MTT-based colorimetric cell viability assay; design: species or system human; details: 0.1 μM, 24 hours
From the text: We next choose a widely used MTT-based colorimetric assay to assess the potential metabolic toxicity and cell viability alterations in the presence of LV-80. […]

VASHs = details: background statement; read-out: IC50 in cellulo; cited from earlier work
VASH2 = VASH2 (Homo sapiens, UniProt Q86V25); assay: In vitro detyrosination assay, VASH2-mediated (immunoblot); assay type: biochemical; details: concentration not given
Chain of VASH2 (Q86V25 whole entry, species assumed): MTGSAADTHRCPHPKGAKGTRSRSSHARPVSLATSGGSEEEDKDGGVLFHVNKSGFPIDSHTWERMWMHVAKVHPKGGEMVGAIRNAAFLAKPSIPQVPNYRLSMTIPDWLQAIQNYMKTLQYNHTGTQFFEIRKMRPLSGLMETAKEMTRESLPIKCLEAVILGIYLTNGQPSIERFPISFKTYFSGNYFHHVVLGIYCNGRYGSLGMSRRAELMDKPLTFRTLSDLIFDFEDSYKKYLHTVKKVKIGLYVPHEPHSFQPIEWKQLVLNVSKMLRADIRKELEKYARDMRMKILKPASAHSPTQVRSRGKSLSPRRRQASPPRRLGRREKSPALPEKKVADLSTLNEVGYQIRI

CHL-1 cells [5] = assay: LC/MS bioanalysis of penetration and conversion in human cells; assay type: in vitro ADME; details: 25 uM, 1 hour
Protocol: CHL-1 cells have been treated with 25 uM of LV-104 for 1 hour. Culture supernatant have been collected immediately (initial) and 1 hour (supernatant) after compound addition. Cells have been washed, lysed and processed for LC/MS reading (Cells) to detect LV-104 and its bio converted form IBMT11.
Peptide stability in serum Human serum reaction sample contained 250 μl of heat inactivated Human Serum (Sigma Aldrich) and 750 μL of RPMI Medium 1640 (Sigma Aldrich). The reactions were initiated by addition of 50 μl compound (in mM stock solution in DMSO). Assays were performed in a shaking water bath at 37° C. 100 μl samples were collected at known time intervals and added to 200 μl of acetonitrile 1% % TFA to precipitate serum proteins. Cloudy sample was cooled to 4° C. for 15 min and then submitted to centrifugation for 10 min at 12,000 rpm to pellet the precipitated serum proteins. 150 μl of the clear supernatants were collected and peptides were finally analyzed by RPHPLC and LC-MS.
The bioanalysis of the penetration and the conversion of the compound LV-104 has been achieved using the above described protocol on human cells (see part 2.2). The results are illustrated on FIG. 14.

VASH1 [6] = target: T1, VASH1; assay: In vitro detyrosination assay using recombinant VASH1 (immunoblot); details: concentration not given
carboxypeptidase A (CPA) = target: T2, carboxypeptidase A (CPA) (Bos taurus, UniProt P00730); assay: Carboxypeptidase A-dependent tubulin detyrosination in vitro; assay type: biochemical; details: concentration not given
T2 sequence (P00730 111-419): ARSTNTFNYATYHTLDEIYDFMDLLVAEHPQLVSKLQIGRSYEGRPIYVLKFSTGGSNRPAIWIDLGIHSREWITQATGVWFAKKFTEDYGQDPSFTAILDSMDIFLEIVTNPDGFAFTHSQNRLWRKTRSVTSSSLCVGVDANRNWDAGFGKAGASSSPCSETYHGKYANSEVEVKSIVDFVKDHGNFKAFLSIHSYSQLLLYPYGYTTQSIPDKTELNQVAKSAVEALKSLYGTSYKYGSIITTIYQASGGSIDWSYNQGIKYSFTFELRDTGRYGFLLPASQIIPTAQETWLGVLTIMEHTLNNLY

[7] = calculated in vitro IC50, read-out: IC50
[8] = read-out: IC50 on cells, compounds added prior Taxol-treatment, FIG. 12

solubility in water or PBS solution [1]: dramatically increased
IC50 (VASH1 [3]; [7]): 300 nM
in vitro activity compared with reference compounds (VASH1 [3]): same activity
Fold change/ LV-80 (VASH1 [3]): 1
Structure (SMILES): O=C([O-])CCC[C@H](NC(=O)[C@H]1O[C@@H]1C(=O)N[C@@H](Cc1ccc(OCc2ccccc2)cc1)C(=O)[O-])C(=O)NCCc1ccccc1.[Na+].[Na+] [IBMT-34]
in cellulo activity compared with reference compounds ([2]; taxol treated CHL-1 cells): same activity

IC50 (VASH1 [3]; [7]): 3900 nM
Fold change/ LV-80 (VASH1 [3]): 13
Structure (SMILES): CC(C)(C)ONC(=O)CCC[C@@H](NC(=O)[C@H]1O[C@@H]1C(=O)N[C@@H](Cc1ccc(OCc2ccccc2)cc1)C(=O)O)C(=O)NCCc1ccccc1 [IBMT-31 hydro]

IC50 (VASH1 [3]; VASH1-mediated tubulin detyrosination, FIG. 13.A, read-out: in vitro IC50): 600 nM
in vitro activity compared with reference compounds (VASH1 [3]): more potently than Epo-Y
Fold change/ LV-80 (VASH1 [3]): 2
Structure (SMILES): CCOc1ccc(C[C@H](NC(=O)[C@H]2O[C@@H]2C(=O)N[C@H](Cc2ccc(OCC)cc2)C(=O)O)C(=O)O)cc1 [IBMT-11]
inhibition of tubulin detyrosination in cellulo ([2]; taxol treated CHL-1 cells): weak inhibition activity

in vitro activity compared with reference compounds (VASH1 [3]): very less potent than LV-80
Structure (SMILES): O=C(O)C(Cc1ccc(O)cc1)NC(=O)C1OC1C(=O)O (stereo not drawn) [SD-139sapo, reference compound]

Structure (SMILES): CC(=O)O[C@H]1C(=O)[C@@]2(C)[C@H]([C@H](OC(=O)c3ccccc3)[C@]3(O)C[C@H](OC(=O)[C@H](O)[C@@H](NC(=O)c4ccccc4)c4ccccc4)C(C)=C1C3(C)C)[C@]1(OC(C)=O)CO[C@@H]1C[C@@H]2O [taxol, paclitaxel]
cell viability (CHL-1 cells [4]): significant reduction

IC50 (VASH1 [3]; [7]): 300 nM
Fold change/ LV-80 (VASH1 [3]): 1
Structure (SMILES): O=C(O)CCC[C@@H](NC(=O)[C@H]1O[C@@H]1C(=O)N[C@@H](Cc1ccc(OCc2ccccc2)cc1)C(=O)O)C(=O)NCCc1ccccc1 [IBMT-29 hydro]

IC50 ([2]; read-out: IC50 in cellulo, taxol-induced detyrosination assay, FIG. 4F): 3000 nM
Structure (SMILES): CCOC(=O)[C@H]1O[C@@H]1C(=O)N[C@@H](Cc1ccc(O)cc1)C(=O)O [Epo-Y, reference compound]
IC50 (VASHs): ~15000 nM
effect on tubulin acetylation ([2]; taxol treated CHL-1 cells): without affecting
inhibition of tubulin detyrosination in cellulo ([2]; taxol treated CHL-1 cells): dose-dependently inhibited; also recorded: reduced tubulin detyrosination in a dose-dependent manner

effect on VASH2-mediated detyrosination in vitro (VASH2): did not have any effect
conversion of prodrug into IBMT11 inside human cells (CHL-1 cells [5]): total conversion
detection of parent compound inside cells (CHL-1 cells [5]): undetectable
effect on VASH1-mediated detyrosination in vitro (VASH1 [6]): did not have any effect
IC50 [2, 8]: 8 nM
in vitro VASH inhibition activity (VASH1 [3]): did not inhibit
Structure (SMILES): CCOC(=O)[C@H](Cc1ccc(OCC)cc1)NC(=O)[C@H]1O[C@@H]1C(=O)N[C@@H](Cc1ccc(OCC)cc1)C(=O)OCC [LV-104]
inhibition of tubulin detyrosination in cellulo ([2]; taxol treated CHL-1 cells): very efficient inhibition

effect on VASH2-mediated detyrosination in vitro (VASH2): did not have any effect
effect on VASH1-mediated detyrosination in vitro (VASH1 [6]): did not have any effect
IC50 [2, 8]: 20 nM
Structure (SMILES): CCOC(=O)[C@H](Cc1ccc(OCC)cc1)NC(=O)[C@H]1O[C@@H]1C(=O)OCC [LV-111]

in vitro VASH inhibition activity (VASH1 [3]): inactive
Structure (SMILES): CCOC(=O)CCCCNC(=O)[C@H]1O[C@@H]1C(=O)N[C@@H](Cc1ccc(OCC)cc1)C(=O)OCC [IBMT23]
in cellulo activity compared with reference compounds ([2]; taxol treated CHL-1 cells): more potent on cultured cells than LV80; also recorded: as potent in vivo as LV80
inhibition of tubulin detyrosination in cellulo ([2]; taxol treated CHL-1 cells): excellent

in vitro activity compared with reference compounds (VASH1 [3]): very less potent than LV-80
Structure (SMILES): CCOC(=O)C1OC1C(=O)NC(Cc1ccc(O)cc1)C(=O)OC(C)(C)C (stereo not drawn) [SD-139, reference compound]

IC50 (VASH1 [3]; [7]): 3900 nM
Fold change/ LV-80 (VASH1 [3]): 13
Structure (SMILES): CCOc1ccc(C[C@H](NC(=O)[C@H]2O[C@@H]2C(=O)NCCCCC(=O)O)C(=O)O)cc1 [IBMT-26]

IC50 (VASH1 [3]; [7]): 1200 nM
Fold change/ LV-80 (VASH1 [3]): 4
Structure (SMILES): O=C(O)[C@H](Cc1ccc(O)cc1)NC(=O)[C@H]1O[C@@H]1C(=O)N[C@@H](Cc1ccc(O)cc1)C(=O)O [LV-59]

Structure (SMILES): NC(=O)C(CCCC(=O)O)NC(=O)C1OC1C(=O)NC(Cc1ccc(O)cc1)C(=O)O (stereo not drawn) [LV-43]
in cellulo activity compared with reference compounds ([2]; taxol treated CHL-1 cells): much less efficient than Epo-Y

IC50 (VASH1 [3]; [7]): 600 nM
Fold change/ LV-80 (VASH1 [3]): 2
Structure (SMILES): O=C(O)[C@H](Cc1ccc(OCc2ccccc2)cc1)NC(=O)[C@H]1O[C@@H]1C(=O)N[C@@H](Cc1ccc(OCc2ccccc2)cc1)C(=O)O [Synthé Mix hydro]

IC50 (VASH1 [3]; [7]): 4200 nM
Fold change/ LV-80 (VASH1 [3]): 14
Structure (SMILES): CCOC(=O)[C@H](Cc1ccc(OCc2ccccc2)cc1)NC(=O)[C@H]1O[C@@H]1C(=O)N[C@H](CCCC(=O)O)C(=O)NCCc1ccccc1 [IBMT-29]

effect on VASH2-mediated detyrosination in vitro (VASH2): did not affect
effect on CPA-dependent detyrosination (carboxypeptidase A (CPA)): completely abolished
effect on VASH1-mediated detyrosination in vitro (VASH1 [6]): did not affect
Structure (SMILES): O=C(O)CC(Cc1ccccc1)C(=O)O (stereo not drawn) [BzISA, benzylsuccinic acid, reference compound]
